According to patent US20080247991A1, “Solution Additives For the Attenuation of Protein Aggregation” (priority 2004, published 2008):
Marks after values point to notes of the source that are not given here.

Legend:
RNase T1 = target: T1, RNase T1 (Aspergillus oryzae, UniProt P00651); settings: interpolated to mbulk 1.10 m; cited from earlier work
T1 sequence (P00651 27-130): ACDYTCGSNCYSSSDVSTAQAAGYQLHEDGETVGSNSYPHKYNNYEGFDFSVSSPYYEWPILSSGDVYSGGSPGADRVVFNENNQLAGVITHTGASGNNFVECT

[1] = target: T2, insulin binding to immobilized monoclonal anti-insulin (Homo sapiens, UniProt P01308); assay: Surface plasmon resonance (Biacore 3000): globular protein association/dissociation kinetics in buffer with additive; settings: for effect on association rate of insulin and anti-insulin / effect on dissociation rate of insulin and anti-insulin: 0.5M, relative to 0.5M NaCl control
T2 construct: purchased Sigma-Aldrich (insulin); Fitzgerald Industries (antibody) I8530; 10-130 clone M322214
Procedure: Surface plasmon resonance experiments were conducted to measure the effect of added ArgHCl and GuHCl on the kinetics of globular protein association and dissociation versus an equimolar salt control (NaCl). The data set shown in the figure is a composition of 8 different concentration runs plus replicates, for a total of 16 runs. At t=140 sec, the flow cell with immobilized anti-insulin was exposed to a constant concentration of insulin in the range of 2 to 188 nM for 3 minutes. During this 3 minutes, the antibody and antigen were free to associate and dissociate. The net reaction is the binding of free antigen in solution, resulting in an increase in detector response proportional to the mass of antigen bound. At t=320 sec, the insulin concentration in the flow cell inlet is returned to zero, and the bound antigen then dissociates from the surface. All 16 runs were simultaneously fit to a binding model by minimizing the squared residuals to yield the association and dissociation rate constants, ka and kd. This process was repeated to yield association, dissociation, and equilibrium constant data for the model systems in various buffers as shown in Table 4.
Globular Protein Association Kinetics—Protein association and dissociation rate constants, ka and kd, were measured for globular proteins via surface plasmon resonance on a Biacore 3000 instrument. Monoclonal anti-insulin was immobilized on a Biacore CM5 sensor chip via amine coupling. The amount of immobilized antibody was selected to give a detector response in the range of 50-100 RU when antigen was present. A reference surface was created by activating and deactivating the surface without coupling an antibody to it.
Different concentrations of insulin in the nanomolar range ([…]) were prepared by dilution and injected serially into the antibody-containing and reference flow cells. […] Pocker, Y. & Biswas, Subhasis, B. (1981) Biochemistry 20, 4354-4361. The dissociation rate was sufficiently fast in buffer that a regeneration buffer was not required. Kinetic constants were extracted by simultaneous fitting of ka and kd to each set of sensorgrams using a 1:1 kinetic model in the BIAevaluation 3.0 software package.

carbonic anhydrase II [2] = target: T3, carbonic anhydrase II (Bos taurus, UniProt P00921); set-up: purchased Sigma-Aldrich C2522; settings: 1.0M GuHCl, carbonic anhydrase less than 30 μM; previous studies; cited from earlier work
carbonic anhydrase II [3] = target: T3, carbonic anhydrase II; assay: Size exclusion HPLC of multimers formed during refolding of carbonic anhydrase; set-up: purchased Sigma-Aldrich C2522; species or system bovine; settings: for A2, percentage of total carbonic anhydrase / A3-5, percentage of total carbonic anhydrase / A6-15, percentage of total carbonic anhydrase / M (monomer), percentage of total carbonic anhydrase / Large multimers, percentage of total carbonic anhydrase: [U]0 = 20 μM, 0.5 M additive; for Large multimers, percentage of total carbonic anhydrase: inferred by difference
Procedure: Size exclusion HPLC experiments were performed to analyze the distribution of multimers formed during refolding. CA was refolded with three different additives, 0.5M NaCl, 0.5M GuHCl, and 0.5M ArgHCl, relative to a base refolding buffers of 0.5M GuHCl, as done in the esterase activity assays above. […] Other than this protein concentration difference, these experiments allow direct comparison of how an additional 0.5M of the three different cations affect refolding.
The samples were not filtered prior to introduction into the HPLC column.
Size Exclusion HPLC—Size exclusion HPLC (SE-HPLC) experiments were performed on a Beckman System Gold HPLC instrument equipped with a Tosohaas G3000SWXL size exclusion column and a UV detector. 30 μl samples were introduced to the column by a constant flow of 1 ml/min mobile phase. Each sample ran for 15 minutes, with carbonic anhydrase eluting between 6 and 10 minutes, depending on its molecular weight and buffer. […] A mixture of lysozyme, carbonic anhydrase, and bovine serum albumin (monomer and dimer) was used as a standard to calibrate molecular weight to retention time. Using this calibration curve and the breakthrough time of the column, the largest multimer that could pass through the column was a 15-mer. When significant mass was missing from a chromatogram, large multimers were quantitated by difference. The presence of large multimers was confirmed via turbidity or dynamic light scattering for each buffer. The instrument was cleaned with 30 μl injections of 4M GuHCl, a denaturing concentration found to dissociate and elute precipitates and large soluble carbonic anhydrase multimers.

carbonic anhydrase II [4] = target: T3, carbonic anhydrase II; assay: Carbonic anhydrase refolding yield by esterase activity (pNPA)
Procedure: Esterase activity assays were performed as a function of initial unfolded protein concentration and buffer composition to determine how equimolar concentrations of NaCl, ArgHCl, and GuHCl each affected refolding yield (FIG. 16).
High concentrations of carbonic anhydrase (>300 μM) were denatured in 6M GuHCl and equilibrated overnight. Refolding was initiated by dilution to 0.5M GuHCl with 50 mM Tris-HCl buffer, pH 7.5. This final GuHCl concentration was selected because it yields a mixture of active, refolded protein and aggregates. The distribution of this mixture was analyzed via esterase activity, size exclusion HPLC, and dynamic light scattering as described above.
Carbonic Anhydrase Esterase Activity—Esterase activity of carbonic anhydrase was assessed using para-nitrophenylacetate (pNPA) as the substrate as described previously. […] Briefly, 10 μl samples of carbonic anhydrase solution were added to 500 μl of Tris-HCl, pH 7.5 and 50 μl of 50 mM pNPA in acetonitrile. Kinetics of hydrolysis of pNPA was observed by the increase in absorbance at 400 nm due to the appearance of the paranitrophenolate ion (pNP^−). In all cases, the observed hydrolysis rate in absorbance units per second (AU/s) under these conditions was constant (pseudo-zero order). Hydrolysis rates were corrected for the hydrolysis of pNPA by the buffer for each type of buffer used. […] The active protein concentration data was reproducible to within 5-8% in replicated experiments.

[5] = 0.5 M additive in HBS-EP, pH 7.4, estimated error 15%
[6] = 0.5 M additive, relative to HBS-EP + 0.5 M NaCl

T3 sequence (P00921 whole entry): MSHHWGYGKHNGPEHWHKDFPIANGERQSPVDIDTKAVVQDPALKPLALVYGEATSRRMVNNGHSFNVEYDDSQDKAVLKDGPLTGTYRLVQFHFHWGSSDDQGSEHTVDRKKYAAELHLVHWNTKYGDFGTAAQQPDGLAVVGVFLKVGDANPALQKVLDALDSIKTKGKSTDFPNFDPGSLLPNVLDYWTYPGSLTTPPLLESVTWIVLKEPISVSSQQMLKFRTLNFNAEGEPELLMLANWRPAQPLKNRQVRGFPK
T2 sequence (P01308 25-54 limits assumed): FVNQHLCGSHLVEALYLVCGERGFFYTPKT
T2 sequence (P01308 90-110 limits assumed): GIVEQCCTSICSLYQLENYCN

## NC(N)=O [Urea]
RNase T1
  Experimental ΓXP: 6.4^a

## Cl.N=C(N)N [GuHCl, Guanidinium chloride]
[1]; [5]
  ka: 40000 M⁻¹ s⁻¹
  kd: 0.094 s⁻¹
[1]; [6]
  ka/ka0: 0.91
  kd/kd0: 6.7
[1]
  effect on association rate of insulin and anti-insulin: insignificant effect
  effect on dissociation rate of insulin and anti-insulin: significantly increases
[1]; listed as guanidinium
  effect on association rate of insulin and anti-insulin: little effect
  effect on dissociation rate of insulin and anti-insulin: accelerated
Carbonic anhydrase II [2]
  yield of native protein: ~100%
Carbonic anhydrase II [3]; 0.5M added, versus 0.5M NaCl
  yield of monomeric protein: significantly increased
Carbonic anhydrase II [3]; time 2 min
  A2, percentage of total carbonic anhydrase: 39%
  A3-5, percentage of total carbonic anhydrase: 8%
  A6-15, percentage of total carbonic anhydrase: 0%
  M (monomer), percentage of total carbonic anhydrase: 42%
  Large multimers, percentage of total carbonic anhydrase: 11%
Carbonic anhydrase II [3]; time 20 min
  A2, percentage of total carbonic anhydrase: 3%
  A3-5, percentage of total carbonic anhydrase: 6%
  A6-15, percentage of total carbonic anhydrase: 0%
  M (monomer), percentage of total carbonic anhydrase: 82%
  Large multimers, percentage of total carbonic anhydrase: 9%
Carbonic anhydrase II [3]; time 38 min
  A2, percentage of total carbonic anhydrase: 1%
  A3-5, percentage of total carbonic anhydrase: 5%
  A6-15, percentage of total carbonic anhydrase: 0%
  M (monomer), percentage of total carbonic anhydrase: 85%
  Large multimers, percentage of total carbonic anhydrase: 9%
Carbonic anhydrase II [3]; time 1500 min
  A2, percentage of total carbonic anhydrase: 0%
  A3-5, percentage of total carbonic anhydrase: 2%
  A6-15, percentage of total carbonic anhydrase: 0%
  M (monomer), percentage of total carbonic anhydrase: 89%
  Large multimers, percentage of total carbonic anhydrase: 9%
Carbonic anhydrase II [4]; 0.5 M additive, relative to 0.5M NaCl, base buffer 0.5 M GuHCl
  α/α0: 8.2
Carbonic anhydrase II [4]; 0.5 M additive, base buffer 0.5 M GuHCl, fit to second-order aggregation model
  α (refolding selectivity parameter, kr/kagg): 77 µM
Carbonic anhydrase II [4]; equimolar (0.5M) additives
  order of yield of active protein as a function of buffer additive: NaCl<<ArgHCl<GuHCl
